{"source": "paper PMC12682859", "about": "“Interconnected roles of mitochondrial carrier proteins ANT, PiT, and UCPs in proton transport” (Frontiers in Molecular Biosciences, 2025)", "molecules": {"B1": {"name": "uncoupling protein 2 (UCP2), recombinant His6-tagged (natural protein, human, UniProt P55851 1-309, looked up)", "chain": "MVGFKATDVPPTATVKFLGAGTAACIADLITFPLDTAKVRLQIQGESQGPVRATASAQYRGVMGTILTMVRTEGPRSLYNGLVAGLQRQMSFASVRIGLYDSVKQFYTKGSEHASIGSRLLAGSTTGALAVAVAQPTDVVKVRFQAQARAGGGRRYQSTVNAYKTIAREEGFRGLWKGTSPNVARNAIVNCAELVTYDLIKDALLKANLMTDDLPCHFTSAFGAGFCTTVIASPVDVVKTRYMNSALGQYSSAGHCALTMLQKEGPRAFYKGFMPSFLRLGSWNVVMFVTYEQLKRALMAACTSREAPF", "notes": "human UCP2, UniProt P55851; Cloned in pET26b(+); purified as a monomer in OG, tetramer after reconstitution in liposomes; source: E. coli BL21 (DE3) or BL21 CodonPlus (DE3)-RIPL, extracted from bacterial membranes, purified (Ni-NTA IMAC, 1% OG); not shown: pelB leader, N-terminal, cleaved; His6, N-terminal, kept"}, "B2": {"name": "uncoupling protein 4 (UCP4), recombinant His6-tagged (natural protein, human, UniProt O95847 1-323, looked up)", "chain": "MSVPEEEERLLPLTQRWPRASKFLLSGCAATVAELATFPLDLTKTRLQMQGEAALARLGDGARESAPYRGMVRTALGIIEEEGFLKLWQGVTPAIYRHVVYSGGRMVTYEHLREVVFGKSEDEHYPLWKSVIGGMMAGVIGQFLANPTDLVKVQMQMEGKRKLEGKPLRFRGVHHAFAKILAEGGIRGLWAGWVPNIQRAALVNMGDLTTYDTVKHYLVLNTPLEDNIMTHGLSSLCSGLVASILGTPADVIKSRIMNQPRDKQGRGLLYKSSTDCLIQAVQGEGFMSLYKGFLPSWLRMTPWSMVFWLTYEKIREMSGVSPF", "notes": "human UCP4, UniProt O95847; Cloned in pET26b(+); purified as a monomer in OG, tetramer after reconstitution in liposomes; source: E. coli BL21 (DE3) or BL21 CodonPlus (DE3)-RIPL, extracted from bacterial membranes, purified (Ni-NTA IMAC, 1% OG); not shown: pelB leader, N-terminal, cleaved; His6, N-terminal, kept"}}, "key": {"[1]": {"target": "T1, UCP2 (Homo sapiens, UniProt P55851)", "T1 construct": "full length, N-terminal His6 tag kept, pelB leader removed; E. coli membranes; homotetramer in liposomes", "T1 sequence (P55851 1-309)": "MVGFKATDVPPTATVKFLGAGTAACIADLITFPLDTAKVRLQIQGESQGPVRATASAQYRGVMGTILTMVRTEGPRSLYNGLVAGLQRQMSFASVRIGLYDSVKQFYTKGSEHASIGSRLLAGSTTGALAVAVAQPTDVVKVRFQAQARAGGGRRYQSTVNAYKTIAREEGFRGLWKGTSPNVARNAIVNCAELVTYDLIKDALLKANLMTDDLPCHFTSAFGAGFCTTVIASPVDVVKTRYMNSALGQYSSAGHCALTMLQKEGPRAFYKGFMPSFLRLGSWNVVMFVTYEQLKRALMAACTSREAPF", "assay": "SPQ fluorescence proton efflux in proteoliposomes", "assay_type": "biochemical", "conditions": "500 uM GTP; EYPC with or without 2.5% cardiolipin, 100 uM palmitic or oleic acid, valinomycin, pH 7.2, 25 C"}, "[2]": {"target": "T2, UCP4 (Homo sapiens, UniProt O95847)", "T2 construct": "gene SLC25A27; full length, N-terminal His6 tag kept, pelB leader removed; E. coli membranes; homotetramer in liposomes", "T2 sequence (O95847 1-323)": "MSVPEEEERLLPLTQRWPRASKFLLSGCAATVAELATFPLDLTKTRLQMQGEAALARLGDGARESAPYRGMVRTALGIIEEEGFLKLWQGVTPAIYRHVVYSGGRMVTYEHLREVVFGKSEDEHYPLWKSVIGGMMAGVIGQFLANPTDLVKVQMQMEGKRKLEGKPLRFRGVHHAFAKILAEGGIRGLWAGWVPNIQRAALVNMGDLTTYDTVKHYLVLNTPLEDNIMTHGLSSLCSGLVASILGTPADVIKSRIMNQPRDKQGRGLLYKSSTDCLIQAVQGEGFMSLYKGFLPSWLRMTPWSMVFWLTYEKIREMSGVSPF", "assay": "SPQ fluorescence proton efflux in proteoliposomes", "assay_type": "biochemical", "conditions": "500 uM GTP; EYPC with or without 2.5% cardiolipin, 100 uM palmitic or oleic acid, valinomycin, pH 7.2, 25 C"}, "[3]": {"target": "T2, UCP4", "assay": "SPQ fluorescence proton efflux in proteoliposomes", "assay_type": "biochemical", "conditions": "EYPC liposomes, valinomycin, pH 7.2, 25 C"}, "[4]": {"target": "T3, PiT (PiT-B) (Homo sapiens, UniProt Q00325)", "T3 construct": "gene SLC25A3; isoform B, N-terminal His6 tag kept, pelB leader removed; E. coli membranes; mainly monomer in liposomes", "T3 sequence (Q00325 50-361 isoform Q00325-2)": "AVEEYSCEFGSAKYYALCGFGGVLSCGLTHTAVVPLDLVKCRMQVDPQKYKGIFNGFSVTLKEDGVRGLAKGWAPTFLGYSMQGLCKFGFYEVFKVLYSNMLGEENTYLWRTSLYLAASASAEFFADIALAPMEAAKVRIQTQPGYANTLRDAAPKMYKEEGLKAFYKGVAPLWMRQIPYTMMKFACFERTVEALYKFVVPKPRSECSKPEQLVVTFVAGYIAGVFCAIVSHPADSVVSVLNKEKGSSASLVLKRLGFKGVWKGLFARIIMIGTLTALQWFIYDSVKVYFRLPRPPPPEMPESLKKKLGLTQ", "assay": "SPQ fluorescence proton efflux in proteoliposomes", "assay_type": "biochemical", "conditions": "EYPC liposomes, valinomycin, pH 7.2, 25 C"}, "[5]": {"target": "T4, ANT1 (Bos taurus, UniProt P02722)", "T4 sequence (P02722 2-298)": "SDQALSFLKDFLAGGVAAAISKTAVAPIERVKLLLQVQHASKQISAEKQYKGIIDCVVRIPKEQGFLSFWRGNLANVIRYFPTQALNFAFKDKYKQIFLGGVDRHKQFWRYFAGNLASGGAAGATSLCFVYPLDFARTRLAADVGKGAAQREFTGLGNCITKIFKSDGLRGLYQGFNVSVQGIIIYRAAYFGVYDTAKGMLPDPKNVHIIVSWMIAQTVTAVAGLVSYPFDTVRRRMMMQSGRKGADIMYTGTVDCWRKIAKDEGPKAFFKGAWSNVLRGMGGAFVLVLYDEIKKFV", "assay": "SPQ fluorescence proton efflux in proteoliposomes", "assay_type": "biochemical", "set-up": "gene SLC25A4; full length, N-terminal His6 tag kept, pelB leader removed; E. coli membranes; mainly monomer in liposomes", "conditions": "EYPC liposomes, valinomycin, pH 7.2, 25 C"}, "[6]": {"target": "T1, UCP2", "assay": "SPQ fluorescence proton efflux in proteoliposomes", "assay_type": "biochemical", "conditions": "EYPC liposomes, valinomycin, pH 7.2, 25 C"}, "[7]": {"target": "the molecule itself", "assay": "semi-native SDS-PAGE; single purified protein reconstituted in liposomes of egg yolk extract (EYPC, ~60% PC) without added cardiolipin; 0.1% SDS in gel and running buffer, samples not heated; Coomassie staining"}, "[8]": {"target": "B2", "assay": "semi-native SDS-PAGE; two purified monomeric proteins co-reconstituted 1:1 in liposomes (UCP4:ANT1 also 3:1 and 1:3), regardless of lipid composition (EYPC with or without 2.5% CL); Coomassie staining", "conditions": "both partners purified"}, "[9]": {"target": "B1", "assay": "semi-native SDS-PAGE; two purified monomeric proteins co-reconstituted 1:1 in liposomes (UCP4:ANT1 also 3:1 and 1:3), regardless of lipid composition (EYPC with or without 2.5% CL); Coomassie staining", "conditions": "both partners purified"}, "[10]": {"conditions": "100 uM palmitic acid as activator"}}, "data": [{"molecule": "Nc1nc2c(ncn2[C@@H]2O[C@H](COP(=O)(O)OP(=O)(O)OP(=O)(O)O)[C@@H](O)[C@H]2O)c(=O)[nH]1", "note": "[GTP]", "values": [{"measurement": "% inhibition at 500 uM", "setting": "[1]", "result": "GTP is overall a more effective inhibitor than ATP of UCP2 and UCP4"}, {"measurement": "% inhibition at 500 uM", "setting": "[2]", "result": "GTP is overall a more effective inhibitor than ATP of UCP2 and UCP4"}]}, {"molecule": "CCCCCCCC/C=C\\CCCCCCCC(=O)O", "note": "[OA, oleic acid]", "values": [{"measurement": "SPQ fluorescence proton efflux in proteoliposomes", "setting": "[3]; 100 uM oleic acid as activator", "result": "For each individual protein, OA was a significantly more potent activator than PA"}, {"measurement": "SPQ fluorescence proton efflux in proteoliposomes", "setting": "[4]; 100 uM oleic acid as activator", "result": "For each individual protein, OA was a significantly more potent activator than PA"}, {"measurement": "fatty-acid-activated proton transport (qualitative finding)", "setting": "[5]; 100 uM oleic acid as activator", "result": "For each individual protein, OA was a significantly more potent activator than PA"}, {"measurement": "fatty acid-activated proton efflux (qualitative)", "setting": "[6]; 100 uM oleic acid as activator", "result": "For each individual protein, OA was a significantly more potent activator than PA"}]}, {"molecule": "CCCCCCCCCCCCCCCC(=O)O", "note": "[PA, palmitic acid]", "values": [{"measurement": "SPQ fluorescence proton efflux in proteoliposomes", "setting": "[3]; [10]", "result": "both OA and PA interacted with all proteins and their combinations"}, {"measurement": "SPQ fluorescence proton efflux in proteoliposomes", "setting": "[4]; [10]", "result": "both OA and PA interacted with all proteins and their combinations"}, {"measurement": "fatty-acid-activated proton transport (qualitative finding)", "setting": "[5]; [10]", "result": "both OA and PA interacted with all proteins and their combinations"}, {"measurement": "fatty acid-activated proton efflux (qualitative)", "setting": "[6]; [10]", "result": "both OA and PA interacted with all proteins and their combinations"}]}, {"molecule": "B1", "values": [{"measurement": "stoichiometry N", "setting": "[7]", "result": 4}, {"measurement": "binding result", "setting": "[8]", "result": "binds"}]}, {"molecule": "adenine nucleotide translocase 1 (ANT1), recombinant His6-tagged (natural protein, bovine, bovine ANT1, UniProt P02722; Cloned in pET26b(+); also called ADP/ATP carrier; AAC; source: E. coli BL21 (DE3) or BL21 CodonPlus (DE3)-RIPL, extracted from bacterial membranes, purified (Ni-NTA IMAC, 1% OG); not shown: pelB leader, N-terminal, cleaved; His6, N-terminal, kept) SDQALSFLKDFLAGGVAAAISKTAVAPIERVKLLLQVQHASKQISAEKQYKGIIDCVVRIPKEQGFLSFWRGNLANVIRYFPTQALNFAFKDKYKQIFLGGVDRHKQFWRYFAGNLASGGAAGATSLCFVYPLDFARTRLAADVGKGAAQREFTGLGNCITKIFKSDGLRGLYQGFNVSVQGIIIYRAAYFGVYDTAKGMLPDPKNVHIIVSWMIAQTVTAVAGLVSYPFDTVRRRMMMQSGRKGADIMYTGTVDCWRKIAKDEGPKAFFKGAWSNVLRGMGGAFVLVLYDEIKKFV", "values": [{"measurement": "stoichiometry N", "setting": "[7]", "result": 2}, {"measurement": "binding result", "setting": "[9]", "result": "binds"}, {"measurement": "binding result", "setting": "[8]", "result": "binds"}]}, {"molecule": "B2", "values": [{"measurement": "stoichiometry N", "setting": "[7]", "result": 4}]}]}
